Source: patent US20120148638A1, “Steroid Solavates” (BREATH LIMITED, priority 2009, published 2012)

Tests used:
[1] = Dry Sympatec PSD analysis (particle size distribution); type: physicochemical; conditions: after isolation
From the text: Particle size or particle diameter as used herein can be suitably determined by laser diffraction based methods, for example as described in ISO Standard 13320-1. Laser diffraction particle sizing apparatus such as the Malvern Mastersizer 2000™ can be used.

[2] = Effect of humidity on prolonged storage: 20% relative humidity for 48 hours; DVS, DSC, TGA, PSD, SEM; type: physicochemical; conditions: for DVS mass plot, change of mass during storage: 20% RH, 48 hours; for Particle Size, cumulative distribution Q3 X10, post-storage sample / Particle Size, cumulative distribution Q3 X50, post-storage sample / Particle Size, cumulative distribution Q3 X90, post-storage sample: dry Sympatec PSD
Procedure: In order to evaluate the effect of humidity on prolonged storage, processed BDP heptane solvate was subjected to 20% relative humidity (RH) for 48 hours.
The sample recovered after storage was analysed by DSC, TGA, PSD and SEM.
In order to evaluate the effect of humidity on prolonged storage processed BDP hydrate was subjected to 20% relative humidity (RH) for 48 hours.

SMILES	Particle Size, cumulative distribution Q3 X10 [1] [μ]	Particle Size, cumulative distribution Q3 X50 [1] [μ]	Particle Size, cumulative distribution Q3 X90 [1] [μ]	Particle size distribution, result in words [1]	Time to steady state of sample mass (DVS) ([2]; 20% RH storage)	DVS mass plot, change of mass during storage [2]	DSC trace of stored sample, thermal behaviour post-humidity treatment ([2]; after 20% RH for 48 hours)	PSD variation of particle size after storage ([2]; after 20% RH for 48 hours)	Particle Size, cumulative distribution Q3 X10, post-storage sample ([2]; after 20% RH for 48 hours) [μ]	Particle Size, cumulative distribution Q3 X50, post-storage sample ([2]; after 20% RH for 48 hours) [μ]	Particle Size, cumulative distribution Q3 X90, post-storage sample ([2]; after 20% RH for 48 hours) [μ]	DVS mass plot, change of mass during storage ([2]; listed as processed BDP heptane)	DSC trace of stored sample, thermal behaviour post-humidity treatment ([2]; after 20% RH for 48 hours, listed as BDP heptane solvate)
CCC(=O)OCC(=O)[C@@]1(OC(=O)CC)[C@@H](C)C[C@H]2[C@@H]3CCC4=CC(=O)C=C[C@]4(C)[C@@]3(Cl)[C@@H](O)C[C@@]21C.O [Comparative Example 2, beclomethasone diproprionate, reference compound]	1.78	8.10	15.10										
CCC(=O)OCC(=O)[C@@]1(OC(=O)CC)[C@@H](C)C[C@H]2[C@@H]3CCC4=CC(=O)C=C[C@]4(C)[C@@]3(Cl)[C@@H](O)C[C@@]21C.O [Comparative Example 1, beclomethasone diproprionate, reference compound]	0.84	3.58	8.76	mostly ˜4 μm particles alongside larger clusters or agglomerates larger than 20 μm									
CCC(=O)OCC(=O)[C@@]1(OC(=O)CC)[C@@H](C)C[C@H]2[C@@H]3CCC4=CC(=O)C=C[C@]4(C)[C@@]3(Cl)[C@@H](O)C[C@@]21C.O [Example 3, beclomethasone diproprionate]	0.51	1.35	3.17	well within the inhalation range	about 1500 minutes	initially underwent considerable weight loss due to partial dehydration	no variation in the thermal behavior	no significant variation of particle size	0.51	1.37	2.95		
CCC(=O)OCC(=O)[C@@]1(OC(=O)CC)[C@@H](C)C[C@H]2[C@@H]3CCC4=CC(=O)C=C[C@]4(C)[C@@]3(Cl)[C@@H](O)C[C@@]21C.O [Example 1, beclomethasone diproprionate]	0.69	2.41	4.67	within the inhalation range					0.68	2.44	5.29	maintained full stability in terms of change of mass	no variation in the thermal behaviour
